US11633421B2, “Use of NAD precursors for improving maternal health and/or offspring health” (UNIVERSITY OF IOWA RESEARCH FOUNDATION, priority 2016, dated 2023)

Tests used:
[1] = Post-partum NR supplementation: maternal body mass, food consumption, body composition; format: in vivo, mice; settings: NR only after birth
Text: FIGS. 6A-D. NR-supplemented mouse mothers lose weight during the 21 day lactation period without diminished food consumption (day 7-21). Delta body mass refers to day 21 post-partum maternal weight minus day 0 post-partum weight (FIG. 6A). Food consumption was day 7-21 (FIG. 6B). NR-supplemented mothers tend to lose fat (FIG. 6C) and maintain lean mass (FIG. 6D). Body composition refers to day 21 post-partum maternal fat and lean mass minus day 0 post-partum maternal fat and lean mass. A series of in vivo murine experiments were performed to evaluate whether maternally supplemented NR has the ability to improve maternal and neonatal health and development.

[2] = Post-partum NR supplementation: milk volume and macronutrient density; format: in vivo, mice
Experimental: (§1) FIGS. 8A-C. Milk from NR-supplemented mothers had normal macronutrient density. Oxytocin-induced milk collection at indicated days. Protein (FIG. 8A), carbohydrate (FIG. 8B) and lipid concentration (FIG. 8C) was not changed. A series of in vivo murine experiments were performed to evaluate the effects of nicotinamide riboside on milk production. […] As shown in FIGS. 8A-C, the concentration of protein, carbohydrate and fat in the milk of NR-supplemented mothers was normal. Because there is approximately 2-fold more milk produced by NR-supplemented mothers, NR-supplemented mothers transmit more calories to their offspring, which thereby assists maternal weight loss and neonatal development. In FIG. 9A, the concentration of NAD precursor vitamins in the milk from control mothers and NR-supplemented mothers was determined. […] Oral NR was labeled with heavy atoms in the nicotinamide and ribose moieties of NR and this was provided to lactating mothers by gavage.

[3] = NAD precursor vitamins in milk; format: in vivo, mice
Experimental: as §1, with “A” for “FIGS. 8A-C. Milk from NR-supplemented mothers had normal macronutrient density. Oxytocin-induced milk collection at indicated days. Protein (FIG. 8A), carbohydrate (FIG. 8B) and lipid concentration (FIG. 8C) was not changed. A”

[4] = Transmission of heavy-atom labeled oral NR into milk; format: in vivo, mice; settings: oral NR labeled with heavy atoms in nicotinamide and ribose moieties, gavage to lactating mothers
Experimental: FIGS. 9A-B. Orally administered NR is not directly transmitted via milk.
as §1, with “A” for “FIGS. 8A-C. Milk from NR-supplemented mothers had normal macronutrient density. Oxytocin-induced milk collection at indicated days. Protein (FIG. 8A), carbohydrate (FIG. 8B) and lipid concentration (FIG. 8C) was not changed. A”

[5] = tested on: NAD biosynthetic genes in the liver; experiment: Hepatic NAD biosynthetic gene expression and NAD metabolites; format: in vivo; settings: lactating mice with vs without NR
Text: Lactation boosts NAD biosynthetic genes (FIG. 11A) and NAD levels (FIG. 11B) in the liver. […]. Lactation seems to depress levels of NR (FIG. 11C) and Nam (FIG. 11D) in the liver.

prolactin = experiment: Prolactin levels in plasma from dam; format: in vivo, mice; settings: plasma from dam on NC or NR chow
Text: FIGS. 13A-D. NR boosts prolactin circulation and mammary biosynthetic pathways for protein, fat and carbohydrate. FIG. 13A. Prolactin levels in plasma from dam on NC or NR chow. FIG. 13B. mTOR pathway is activated in NR-supplemented mammary tissue. FIG. 13C. Genes involved in lipid biosynthesis are activated in NR-supplemented mammary tissue. FIG. 13D. Genes involved in lactose synthesis pathway are activated in NR-supplemented mammary tissue. […] In addition, the size of the mammary tissue itself is greater in NR-supplemented mothers than in non-supplemented mothers (FIG. 14A).

UCP1 = UCP1 expression in mammary tissue; format: in vivo, mice; settings: NR-supplemented vs NC mothers
Text: FIGS. 14A-B. Postpartum NR supplementation promotes mammary gland development (n=5 mice per group) (FIG. 14A). NR increases heat loss by increasing expression of UCP1 (FIG. 14B). […] In addition, the size of the mammary tissue itself is greater in NR-supplemented mothers than in non-supplemented mothers (FIG. 14A).

[6] = Open field test of offspring; format: in vivo, mice
Experimental: The order of the bars from left to right are: males of normal chow (NC) mothers (white with light grey outline), followed by males of NR-supplemented mothers (filled light grey), followed by females of NC mothers (white with dark grey outline), followed by females of NR-supplemented mothers (filled dark grey). […] These adults were treated identically ever since weaning. The only difference is whether the mother was NR-supplemented for 21 days. They are faster and more adventurous. The order of the bars from left to right are: males of normal chow (NC) mothers (white with light grey outline), followed by males of NR-supplemented mothers (filled light grey), followed by females of NC mothers (white with dark grey outline), followed by females of NR-supplemented mothers (filled dark grey). At 15 days of age, it was observed that the offspring of NR-supplemented mothers were more physically active. In this experiment, the physical activity of male and female offspring of mothers supplemented or not with NR at 15 days of age was quantified. […] At 21 days, the offspring were removed from their mothers and put on normal chow […]. While offspring of NR could have been put on NR chow, we aimed to determine if the 21 day intervention to their mothers was sufficient for a lasting effect on their neurocognitive and/or physical development.

[7] = Balance beam test of offspring; format: in vivo, mice; settings: 85 days old male and female offspring
Text: FIGS. 22A-C. 64 days after their mother's intervention, 85-day-old adults of NR-supplemented mothers have better performance on a balance beam. They cross a beam balance faster (untrained); they slip fewer times; and they almost never grip the beam with their tail. […] The order of the bars from left to right are: males of normal chow (NC) mothers (white with light grey outline), followed by males of NR-supplemented mothers (filled light grey), followed by females of NC mothers (white with dark grey outline), followed by females of NR-supplemented mothers (filled dark grey). The improved physical functions of adult offspring of NR-supplemented mothers were not confined to advantages in making less anxious choices about where to move in space, light and dark. At 85 days old, when mice were again 64 days past their mother's intervention—again all mice were on NC show for 64 days—their untrained ability to cross a balance beam was tested. […] This was not anticipated.

[8] = supplementing post-gestational mothers
[9] = NR-supplemented vs non-supplemented mothers

## NC(=O)c1ccc[n+]([C@@H]2O[C@H](CO)[C@@H](O)[C@H]2O)c1 [NR, nicotinamide riboside]
[1]; day 7-21
  maternal food consumption: as least as much as non-supplemented mothers
[1]; day 21 minus day 0 post-partum
  maternal body weight: lost significant weight
  maternal fat mass: lost significant weight, specifically in fat mass
  maternal lean mass: maintained their lean mass
[2]; NR-supplemented mothers
  concentration of carbohydrate in the milk: normal
  concentration of fat in the milk: normal
  concentration of protein in the milk: normal
[2]; [8]
  milk produced vs non-supplemented mothers: approximately 2 fold
  milk production: large increase
[3]; [9]
  NR concentration in milk: moderately higher
  nicotinamide (Nam) concentration in milk: moderately higher
[3]; concentration coupled with larger milk volume
  NAD precursor vitamins (total B3) transmitted: significantly more
[4]
  labeled species released into milk: only single labeled nicotinamide and no double-labeled NR
[5]
  NAD biosynthetic genes and NAD levels in the liver: does not superinduce
  hepatic NAD biosynthetic gene expression: did not further increase
  levels of NR and Nam in the liver: depresses the accumulation of these metabolites in the liver even more
prolactin
  circulating prolactin: very high levels
UCP1
  expression of UCP1 in mammary tissue: increase in expression
[6]; 15 days of age, first 5 minutes
  physical activity in open field test: much more physically active
[6]; 15 days of age, males, middle 5 minute epoch
  time in the center of the open field test: significant amount of time in the center
[6]; 70 day-old adult males
  time in the center of open field test: less time in the center
[6]; 70 day-old adults
  immobile time in open field test: tendency toward less immobile time
  speed in open field test: move faster
[6]; 70 day-old adults, 49 days after mother's intervention
  distance covered in open field test: cover more distance
[7]
  slips on balance beam: fewer slips
  time to cross a balance beam (untrained): cross faster
  use of tail to grip the balance beam: virtually no use of their tails
